Measured values: publication PMC12332667, “Role of Structural Modifications in Peptidomimetic Compounds as Potential Antimicrobial Agents against Staphylococcus aureus and Streptococcus pyogenes: Balancing Bioavailability, Safety, and Antimicrobial Activity” (ACS Omega, 2025)
Values after ≈ are worked out from the molar mass of the structure shown. Like-named read-outs stand apart in the source and are kept apart here. Residues, ends and D or L forms follow the SMILES beside them.

What was measured:
[1] = cited from earlier work
[2] = test system: S. aureus ATCC 43300; experiment: MIC/MBC broth microdilution, S. aureus; assay type: cell-based, Staphylococcus aureus; conditions: S. aureus
[3] = test system: S. pyogenes ATCC 19615; experiment: MIC/MBC broth microdilution, S. pyogenes; assay type: cell-based, Streptococcus pyogenes
In short: (§1)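 Broth microdilution per NCCLS in BHI, ~10^5 CFU/mL inoculum, serially diluted peptidomimetics (stock 1024 μg/mL in water with 5–10% ethanol or DMSO), 18 h at 37 °C. MIC: lowest concentration with no obvious growth (≥90% of untreated); MBC: ≤3 colonies, ≥99.9% kill.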

[4] = test system: S. cohnii c.i.; experiment: MIC/MBC broth microdilution, S. cohnii; assay type: cell-based, Staphylococcus cohnii; conditions: for MIC: read-out: MIC
In short: as §1

[5] = test system: E. faecalis c.i.; experiment: MIC/MBC broth microdilution, E. faecalis; assay type: cell-based, Enterococcus faecalis
In short: as §1

[6] = test system: S. schleiferi c.i.; experiment: MIC/MBC broth microdilution, S. schleiferi; assay type: cell-based, Staphylococcus schleiferi
In short: as §1

[7] = test system: S. intemrdius c.i.; experiment: MIC/MBC broth microdilution, S. intermedius; assay type: cell-based, Staphylococcus intermedius
In short: as §1

[8] = test system: S. mutans c.i.; experiment: MIC/MBC broth microdilution, S. mutans; assay type: cell-based, Streptococcus mutans
In short: as §1

[9] = test system: E. coli ATCC 25922; experiment: MIC/MBC broth microdilution, E. coli; assay type: cell-based, Escherichia coli
In short: as §1

[10] = test system: P. vulgaris ATCC 6896; experiment: MIC/MBC broth microdilution, P. vulgaris; assay type: cell-based, Proteus vulgaris
In short: as §1

[11] = test system: K. pneumoniae ATCC 700603; experiment: MIC/MBC broth microdilution, K. pneumoniae; assay type: cell-based
In short: as §1

[12] = test system: P. aeruginosa ATCC 10145; experiment: MIC/MBC broth microdilution, P. aeruginosa; assay type: cell-based
In short: as §1

[13] = Stability / presence in human plasma; assay type: in vitro ADME; conditions: 24 h incubation at 37 °C
Description: Blood was drawn from healthy volunteers, and lithium/heparin holding tubes were used to remove the clot by centrifugation. The plasma was aliquoted in sterile conditions and incubated with the desired compounds for 24 h at 37 °C. The samples were prepared under sterile conditions following the previously described protocol. The samples were collected at six time points (0, 1, 2, 3, 6, and 24 h) for determining stability in water solutions, and time points of 0, 10, 20, 30, 40, 50, and 60 min, as well as of 2, 3, 6, and 24 h, for determining stability in human plasma. The analysis was performed by HPLC using a Kromasil C8 column (5 μm, 90 Å, 1.0 mm × 250 mm) monitored by a PDA or ELDS-LT II detector. For quantification, peak areas were compared to a calibration curve calculated by Shimadzu LCsolution Software (Kyoto, Japan). Graphs were prepared in GraphPad Prism (Boston, USA).

[14] = test system: immortalized human keratinocytes (HaCaT); experiment: LDH cytotoxicity test, keratinocytes; assay type: cell-based; conditions: LDH, 48 h
In short: (§2)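 HaCaT keratinocytes and 46BR.1N fibroblasts, 5000 cells per well, grown 24 h, then exposed to peptidomimetics at 50, 100 and 150 μg/mL in serum-free medium for 48 h. LDH release in supernatant read at 450 nm, normalized to untreated (0%) and 1% Triton X-100 (maximal) controls.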

[15] = test system: fibroblasts (46BR.1N); experiment: LDH cytotoxicity test, fibroblasts; assay type: cell-based; conditions: LDH, 48 h
In short: as §2

[16] = test system: immortalized human HaCaT keratinocytes; experiment: XTT cell proliferation assay, keratinocytes; assay type: cell-based
In short: (§3)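 Cells at 37 °C, 5% CO2 received peptidomimetics in serum-free HG-DMEM for 48 or 72 h; for 72 h, half the medium was renewed and peptide re-added at 48 h. XTT reagent was then incubated 4 h and absorbance read at 490 nm; Mann–Whitney U test, p ≤ 0.05.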

[17] = test system: human dermal fibroblast cell line (46BR.1N); experiment: XTT cell proliferation assay, fibroblasts; assay type: cell-based
In short: as §3

[18] = test system: S. agalactiae ATCC 27956; experiment: MIC/MBC broth microdilution, S. agalactiae; assay type: cell-based, Streptococcus agalactiae; conditions: Streptococcus agalactiae, ATCC27956, S. agalactiae; for MBC: read-out: MBC; for MIC: read-out: MIC
In short: as §1

[19] = test system: primary human keratinocytes; design: method as in PMID 28110818; conditions: concentrations up to 50 μg/mL; reference number not given, probably ref 22; cited from earlier work
[20] = S. pyogenes, water additive EtOH
[21] = A-196 0.01–10 μg/mL, A-219 above 0.1 μg/mL, A-213 lower concentrations
[22] = up to 150 μg/mL, A-193 and A-179 after 48 h
[23] = Staphylococcus intermedius, H2O
[24] = Staphylococcus intermedius, water additive DMSO
[25] = Staphylococcus intermedius, water additive EtOH

CNC(C)C1CCC(N)C(OC2C(N)CC(N)C(OC3OCC(C)(O)C(NC)C3O)C2O)O1 (stereo not shown) [gentamicin]
VD values ([1]; in vivo): −0.699 to −0.432 log L/kg

CN[C@H](CC(C)C)C(=O)N[C@H]1C(=O)N[C@@H](CC(N)=O)C(=O)N[C@H]2C(=O)N[C@H]3C(=O)N[C@H](C(=O)N[C@H](C(=O)O)c4cc(O)cc(O)c4-c4cc3ccc4O)[C@H](O)c3ccc(c(Cl)c3)Oc3cc2cc(c3O[C@@H]2O[C@H](CO)[C@@H](O)[C@H](O)[C@H]2O[C@H]2C[C@](C)(N)[C@H](O)[C@H](C)O2)Oc2ccc(cc2Cl)[C@H]1O [vancomycin]
VD values ([1]; reference number not given, probably ref 84, 85): −0.398 to 0 log L/kg

CC(C)C[C@H](NC(=O)[C@H](CCCNC(=N)N)NC(=O)OCc1ccccc1)C(=O)N[C@H](C(=O)NCCc1ccccc1)C(C)C [Compound A-196] (HELM PEPTIDE1{[O=C(OCc1ccccc1)[*:2]].R.L.V.[c1ccc(CCN[*:1])cc1]}$$$$V2.0)
MBC ([2]; H2O): 256 µg/mL (≈ 410 µM)
MBC ([2]; water additive DMSO): 256 µg/mL (≈ 410 µM)
MBC ([3]; S. pyogenes, water additive DMSO): 256 µg/mL (≈ 410 µM)
MBC [3, 20]: 256 µg/mL (≈ 410 µM)
MBC ([4]; water additive DMSO): 256 µg/mL (≈ 410 µM)
MBC ([4]; water additive EtOH): 256 µg/mL (≈ 410 µM)
MIC ([5]; H2O): > 512 µg/mL
MIC ([5]; water additive DMSO): > 512 µg/mL
MBC ([5]; water additive EtOH): > 512 µg/mL
MIC ([5]; water additive EtOH): 512 µg/mL (≈ 821 µM)
MBC ([6]; H2O): 16 µg/mL (≈ 25.6 µM)
MIC ([6]; H2O): 16 µg/mL (≈ 25.6 µM)
MBC ([6]; water additive DMSO): 16 µg/mL (≈ 25.6 µM)
MIC ([6]; water additive DMSO): 16 µg/mL (≈ 25.6 µM)
MBC ([6]; water additive EtOH): 32 µg/mL (≈ 51.3 µM)
MIC ([6]; water additive EtOH): 16 µg/mL (≈ 25.6 µM)
MIC ([7]; H2O): 32 µg/mL (≈ 51.3 µM)
MBC ([8]; H2O): 256 µg/mL (≈ 410 µM)
MIC ([8]; water additive DMSO): 32 µg/mL (≈ 51.3 µM)
MIC ([9]; H2O): > 512 µg/mL
MIC ([9]; water additive DMSO): > 512 µg/mL
MIC ([9]; water additive EtOH): > 512 µg/mL
MIC ([10]; H2O): > 512 µg/mL
MIC ([10]; water additive DMSO): > 512 µg/mL
MIC ([10]; water additive EtOH): > 512 µg/mL
MIC ([11]; H2O): > 512 µg/mL
MIC ([11]; water additive DMSO): > 512 µg/mL
MIC ([11]; water additive EtOH): > 512 µg/mL
MIC ([12]; H2O): > 512 µg/mL
MIC ([12]; water additive DMSO): > 512 µg/mL
MIC ([12]; water additive EtOH): > 512 µg/mL
present in human plasma [13]: 85–90%
concentration at which cytotoxic effect starts [14]: 150 µg/mL
concentration at which cytotoxic effect starts [15]: 150 µg/mL
pro-proliferative effect above control [16, 21]: 5–20%
antiproliferative effect (decrease vs control) [16, 22]: up to 50%
pro-proliferative effect above control [17, 21]: 5–20%
antiproliferative effect (decrease vs control) [17, 22]: up to 50%

CC(C)C[C@H](NC(=O)[C@H](CCCNC(=N)N)NC(=O)OCc1ccccc1)C(=O)N[C@H](CNC(=O)/C=C/c1ccccc1)C(C)C [Compound A-20]
MBC ([2]; water additive DMSO): 32 µg/mL (≈ 50.3 µM)
MIC ([2]; water additive DMSO): 16 µg/mL (≈ 25.2 µM)
MBC ([2]; water additive EtOH): 32 µg/mL (≈ 50.3 µM)
MIC ([2]; water additive EtOH): 16 µg/mL (≈ 25.2 µM)
MBC ([2]; Staphylococcus aureus, ATCC43300, H2O, read-out: MBC): 32 µg/mL (≈ 50.3 µM)
MIC ([2]; Staphylococcus aureus, ATCC43300, H2O, read-out: MIC): 16 µg/mL (≈ 25.2 µM)
MIC ([3]; S. pyogenes, H2O): 8 µg/mL (≈ 12.6 µM)
MIC [3, 20]: 8 µg/mL (≈ 12.6 µM)
MBC ([3]; Streptococcus pyogenes, ATCC19615, S. pyogenes, H2O, read-out: MBC): 16 µg/mL (≈ 25.2 µM)
MBC ([3]; Streptococcus pyogenes, ATCC19615, S. pyogenes, water additive EtOH, read-out: MBC): 16 µg/mL (≈ 25.2 µM)
MBC ([3]; Streptococcus pyogenes, ATCC19615, S. pyogenes, water additive DMSO, read-out: MBC): 8 µg/mL (≈ 12.6 µM)
MIC ([3]; Streptococcus pyogenes, ATCC19615, S. pyogenes, water additive DMSO, read-out: MIC): 8 µg/mL (≈ 12.6 µM)
MBC ([4]; Staphylococcus cohnii, H2O, read-out: MBC): 64 µg/mL (≈ 101 µM)
MIC ([4]; Staphylococcus cohnii, H2O): 128 µg/mL (≈ 201 µM)
MIC ([4]; Staphylococcus cohnii, water additive DMSO): 64 µg/mL (≈ 101 µM)
MIC ([4]; Staphylococcus cohnii, water additive EtOH): 64 µg/mL (≈ 101 µM)
MBC ([5]; Enterococcus faecalis, H2O, read-out: MBC): 256 µg/mL (≈ 403 µM)
MIC ([5]; Enterococcus faecalis, H2O, read-out: MIC): 128 µg/mL (≈ 201 µM)
MBC ([5]; water additive DMSO): 256 µg/mL (≈ 403 µM)
MBC ([5]; water additive EtOH): 256 µg/mL (≈ 403 µM)
MBC ([6]; Staphylococcus schleiferi, H2O, read-out: MBC): 16 µg/mL (≈ 25.2 µM)
MIC ([6]; Staphylococcus schleiferi, H2O, read-out: MIC): 16 µg/mL (≈ 25.2 µM)
MBC ([6]; Staphylococcus schleiferi, water additive DMSO, read-out: MBC): 8 µg/mL (≈ 12.6 µM)
MIC ([6]; Staphylococcus schleiferi, water additive DMSO, read-out: MIC): 8 µg/mL (≈ 12.6 µM)
MBC ([6]; Staphylococcus schleiferi, water additive EtOH, read-out: MBC): 16 µg/mL (≈ 25.2 µM)
MIC ([6]; Staphylococcus schleiferi, water additive EtOH, read-out: MIC): 16 µg/mL (≈ 25.2 µM)
MBC ([18]; H2O): 256 µg/mL (≈ 403 µM)
MIC ([18]; H2O): 128 µg/mL (≈ 201 µM)
MBC ([18]; water additive DMSO): 64 µg/mL (≈ 101 µM)
MIC ([18]; water additive DMSO): 32 µg/mL (≈ 50.3 µM)
MBC ([18]; water additive EtOH): 128 µg/mL (≈ 201 µM)
MIC ([18]; water additive EtOH): 64 µg/mL (≈ 101 µM)
MBC [7, 23]: 64 µg/mL (≈ 101 µM)
MIC [7, 23]: 32 µg/mL (≈ 50.3 µM)
MBC [7, 24]: 32 µg/mL (≈ 50.3 µM)
MIC [7, 24]: 16 µg/mL (≈ 25.2 µM)
MBC [7, 25]: 64 µg/mL (≈ 101 µM)
MIC [7, 25]: 32 µg/mL (≈ 50.3 µM)
MIC ([8]; Streptococcus mutans, H2O, read-out: MIC): 16 µg/mL (≈ 25.2 µM)
MIC ([8]; water additive DMSO): 16 µg/mL (≈ 25.2 µM)
MIC ([8]; water additive EtOH): 16 µg/mL (≈ 25.2 µM)
MBC ([9]; Escherichia coli, ATCC25922, H2O, read-out: MBC): 512 µg/mL (≈ 805 µM)
MIC ([9]; Escherichia coli, ATCC25922, H2O, read-out: MIC): 256 µg/mL (≈ 403 µM)
MBC ([9]; water additive DMSO): 512 µg/mL (≈ 805 µM)
MIC ([9]; water additive DMSO): 256 µg/mL (≈ 403 µM)
MBC ([9]; water additive EtOH): 512 µg/mL (≈ 805 µM)
MIC ([9]; water additive EtOH): 256 µg/mL (≈ 403 µM)
MIC ([10]; Proteus vulgaris, ATCC6896, H2O, read-out: MIC): > 512 µg/mL
MIC ([10]; water additive DMSO): > 512 µg/mL
MIC ([10]; water additive EtOH): > 512 µg/mL
MIC ([11]; Klebsiella pneumoniae, ATCC700603, H2O, read-out: MIC): > 512 µg/mL
MIC ([11]; water additive DMSO): > 512 µg/mL
MIC ([11]; water additive EtOH): > 512 µg/mL
MIC ([12]; Pseudomonas aeruginosa, ATCC10145, H2O, read-out: MIC): > 512 µg/mL
MIC ([12]; water additive DMSO): > 512 µg/mL
MIC ([12]; water additive EtOH): > 512 µg/mL
impact on proliferation [19]: no impact on the proliferation
